Measurements as given in PMC3538728 (PLoS ONE, 2013).
Values joined by “and” are separate entries in the source; they are usually repeats but may differ in a detail not shown here. Equal entries are not always repeated. Where two headings read alike, the source gives them in different places.

Molecular target: T1, γ-secretase (Homo sapiens, UniProt P49768)
T1 construct: γ-Secretase is composed of four subunits: Aph1, Pen2, glycosylated nicastrin, and endo-proteolyzed presenilin as the catalytic core; endogenous in cells; host or cells: HeLa S3 (ATCC CCL-2.2)
Assay: Aβ 1–40 secretion from HeLa cells in the presence of DAPT (sandwich ELISA), dose-response fits
Assay type: cell-based
Conditions: for EC50: read-out: Activation EC50; for IC50: read-out: Inhibition IC50; for Maximal Activity that can be achieved by transfection (Aβ 1-40 secreted): HeLa transfected with cDNAwtC99
From the text: HeLa cells have been transfected using Lipofectamine LTX™ reagent following the manufacturer instructions. The transfection protocol and concentration of pSG5-cDNAwtC99 plasmid have been optimized to achieve desired assay sensitivity, a gradual increase in the substrate expression level, and a smooth transition from biphasic to the standard dose-response curves (Figs. 2–3). Initially concentration of pSG5-cDNAwtC99 plasmid have been optimized by western blots using anti-flag αM2 monoclonal antibody as described in our previous study. The cells were transfected in 24-well plates. The day before transfection the cells were trypsinized and counted. About 0.85×10^5 cells were seeded per well in 0.5 ml of complete growth medium to achieve about 75% confluent cultures on the day of transfection. Before the transfection old medium was removed and replaced with fresh 0.5 ml of complete growth medium. For transfection 5X DNA concentration was diluted in 500 µl of Opti-MEM®I Reduced Serum Media and mixed with 0.7 µl of Lipofectamine LTX™ Reagent. The solution was gently mixed and incubated for 30 minutes at room temperature to form DNA- Lipofectamine LTX™ Reagent complexes. Following the 30 min incubation, 100 µl of the DNA- Lipofectamine LTX™ Reagent complexes was added directly to each well containing cells and mixed gently by rocking the plate back and forth. The cells were incubated at 37°C in a CO2 incubator for 18 hours.
Fresh medium was added 18 hours after the transfection (0.5 ml per well), to prepare the cells for incubation with DAPT [18], [51]. Different concentrations of DAPT were prepared in DMSO, and added to the cells so that the final DMSO concentration in the culture was 0.1% (v/v). DMSO vehicle represents 0 nM DAPT. The cells were incubated with DAPT at given concentrations for 15 hours.
The assay linear response is in the range from 6–125 pM of Aβ 1–40. The assays were performed by closely following the manufacturer instructions. […] Each well was filled with 50 µl of the antibody conjugate solution and 50 µl of sample. The Aβ 1–40 standards were supplied by the manufacturer and prepared in parallel with other samples. All of the prepared wells were wrapped in aluminum foil and incubated overnight at 4°C with gentle mixing. The next day each well was washed five times with 300 µl of wash solution. After each […] wash, the wash solution was poured out and the wells were dried by tapping the plates on an absorbing paper. Washed wells were filled with 100 µl of the enzyme conjugate solution, covered, and incubated for 30 min at room temperature with shaking. The washing procedure was repeated once again to remove excess of the enzyme-conjugate. Next 100 µl of the substrate solution was added in each well in dark, and kept for 30 minutes covered at room temperature. The reaction was quenched by adding 50 µl of stop solution to each well, and within 15 min the signal intensity was read by measuring absorption at 450 nm.
All experimental results were analyzed using MicroCal Origin 7.0 program, nonlinear regressions, and equations that represent specific mechanism. All results are reported as the best fit value ± standard error with two-sigma confidence intervals shown in square brackets (i.e. x±y [p, q]). Briefly, the standard error indicates random errors (i.e. precision) for each method, while the two sigma confidence intervals indicate the ability of given experimental setup to provide information about specific best-fit parameter. The random error for presented experiments is low, as indicated by a low scatter from the best fit values. The sharp confidence intervals can be obtained by taking a large number of independent data points that cover all segments that define the measured functions. […]

[1] = Aβ 1-40 secreted, untransfected HeLa cells, eqn. 1, six free fit parameters
[2] = Aβ 1-40 secretion, untransfected HeLa cells, eqn. 1, six free fit parameters
[3] = HeLa, 0 ng/mL pSG5-cDNAwtC99, eqn. 1
[4] = HeLa, 15 ng/mL pSG5-cDNAwtC99, eqn. 1
[5] = HeLa, 25 ng/mL pSG5-cDNAwtC99, eqn. 1
[6] = HeLa, 61 ng/mL pSG5-cDNAwtC99, eqn. 1
[7] = HeLa, 92 ng/mL pSG5-cDNAwtC99, eqn. 1

T1 sequence (Q9NZ42 whole entry, other chains not shown): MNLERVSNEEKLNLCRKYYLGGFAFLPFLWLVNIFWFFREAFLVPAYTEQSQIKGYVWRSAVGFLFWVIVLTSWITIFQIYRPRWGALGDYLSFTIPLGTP
T1 sequence (Q92542 34-709, other chains not shown, further chain): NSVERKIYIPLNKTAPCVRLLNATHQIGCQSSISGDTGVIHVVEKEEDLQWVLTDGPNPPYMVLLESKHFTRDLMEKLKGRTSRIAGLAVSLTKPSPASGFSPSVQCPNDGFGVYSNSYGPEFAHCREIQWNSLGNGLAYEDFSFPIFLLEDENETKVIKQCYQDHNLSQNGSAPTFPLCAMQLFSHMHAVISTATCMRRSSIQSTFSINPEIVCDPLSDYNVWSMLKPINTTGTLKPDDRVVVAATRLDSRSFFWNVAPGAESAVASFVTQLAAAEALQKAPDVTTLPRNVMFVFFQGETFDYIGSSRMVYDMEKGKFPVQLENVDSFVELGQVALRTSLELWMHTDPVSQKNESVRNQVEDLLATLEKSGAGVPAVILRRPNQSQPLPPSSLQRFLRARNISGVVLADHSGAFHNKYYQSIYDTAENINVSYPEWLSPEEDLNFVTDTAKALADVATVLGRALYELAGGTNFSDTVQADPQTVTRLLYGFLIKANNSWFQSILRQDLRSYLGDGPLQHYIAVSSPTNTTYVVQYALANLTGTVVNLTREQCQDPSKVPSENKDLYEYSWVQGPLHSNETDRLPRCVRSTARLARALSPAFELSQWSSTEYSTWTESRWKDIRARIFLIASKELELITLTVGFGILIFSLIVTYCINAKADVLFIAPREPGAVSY
T1 sequence (Q96BI3 whole entry, other chains not shown, further chain): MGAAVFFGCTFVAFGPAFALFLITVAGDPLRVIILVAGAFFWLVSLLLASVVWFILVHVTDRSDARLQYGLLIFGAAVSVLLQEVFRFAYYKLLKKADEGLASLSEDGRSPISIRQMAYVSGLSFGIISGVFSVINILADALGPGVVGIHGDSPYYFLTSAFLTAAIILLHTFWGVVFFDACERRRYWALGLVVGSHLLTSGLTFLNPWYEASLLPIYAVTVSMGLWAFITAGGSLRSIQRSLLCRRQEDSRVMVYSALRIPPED

C[C@H](NC(=O)Cc1cc(F)cc(F)c1)C(=O)N[C@H](C(=O)OC(C)(C)C)c1ccccc1 [DAPT, N-[N-(3,5-difluorophenacetyl)-L-alanyl]-S-phenylglycine t-butyl ester]
Endogenous activity as percentage of maximal activity achieved by transfection (33 nM DAPT): 40% and 39.7%
cDNAwtC99 required to reach maximal activity (33 nM DAPT): 192 ng/mL and 191.0 ng/mL
Endogenous activity as percentage of maximal activity achieved by transfection (100 nM DAPT): 72% and 72.5%
cDNAwtC99 required to reach maximal activity (100 nM DAPT): 92.7 ng/mL
Endogenous activity as percentage of maximal activity achieved by transfection (333 nM DAPT): 92.1%
cDNAwtC99 required to reach maximal activity (333 nM DAPT): 59.8 ng/mL
Endogenous activity as percentage of maximal activity achieved by transfection (500 nM DAPT): 89.3%
cDNAwtC99 required to reach maximal activity (500 nM DAPT): 39.2 ng/mL
Endogenous activity as percentage of maximal activity achieved by transfection (1000 nM DAPT): 96.2%
cDNAwtC99 required to reach maximal activity (1000 nM DAPT): 14.0 ng/mL
Initial Activity, IA (Aβ 1-40 secreted, untransfected HeLa cells, endogenous substrate, activity at inhibitor concentration zero, eqn. 1, six free fit parameters): 31 ± 4 pM per 10^6 cells
Maximal Activity (MA), calculated activation plateau [1]: 196 pM per 10^6 cells and 196 ± 80 pM per 10^6 cells
Maximal Inhibition, MI [1]: 0.5 ± -3.4 pM per 10^6 cells
EC50 [2]: 72 ± 20 nM
IC50 [2]: 472 ± 95 nM
Maximal Activity that can be achieved by transfection (Aβ 1-40 secreted) (33 nM DAPT): 204.5 pM per 10^6 cells
Maximal Activity that can be achieved by transfection (Aβ 1-40 secreted) (100 nM DAPT): 182 pM per 10^6 cells and 182.0 pM per 10^6 cells
Maximal Activity that can be achieved by transfection (Aβ 1-40 secreted) (333 nM DAPT): 140.0 pM per 10^6 cells
Maximal Activity that can be achieved by transfection (Aβ 1-40 secreted) (500 nM DAPT): 125.0 pM per 10^6 cells
Maximal Activity that can be achieved by transfection (Aβ 1-40 secreted) (1000 nM DAPT): 44.7 pM per 10^6 cells
Activation Hill coef. [3]: 1.04 ± 0.2
Inhibition Hill's coef [3]: 2 ± 0.3
Maximal Activity, MA [3]: 217 ± 110 pM per 10^6 cells
Maximal Inhibition, MI [3]: -1 ± 0.1 pM per 10^6 cells
Initial Activity, IA (HeLa, 0 ng/mL pSG5-cDNAwtC99, eqn. 1, activity at zero DAPT): 32 ± 3 pM per 10^6 cells
EC50 [3]: 89 ± 17 nM
IC50 [3]: 407 ± 34 nM
Activation Hill coef. [4]: 1.08 ± 0.2
Inhibition Hill's coef [4]: 2.4 ± 0.3
Maximal Activity, MA [4]: 172 ± 90 pM per 10^6 cells
Maximal Inhibition, MI [4]: 0.33 ± 0.7 pM per 10^6 cells
Initial Activity, IA (HeLa, 15 ng/mL pSG5-cDNAwtC99, eqn. 1, activity at zero DAPT): 41 ± 3 pM per 10^6 cells
EC50 [4]: 71 ± 21 nM
IC50 [4]: 588 ± 35 nM
Activation Hill coef. [5]: 1.0 ± 0.1
Inhibition Hill's coef [5]: 2.2 ± 0.4
Maximal Activity, MA [5]: 205 ± 80 pM per 10^6 cells
Maximal Inhibition, MI [5]: -0.2 ± 0.1 pM per 10^6 cells
Initial Activity, IA (HeLa, 25 ng/mL pSG5-cDNAwtC99, eqn. 1, activity at zero DAPT): 51 ± 5 pM per 10^6 cells
EC50 [5]: 110 ± 34 nM
IC50 [5]: 524 ± 71 nM
Activation Hill coef. [6]: 1.13 ± 0.6
Inhibition Hill's coef [6]: 2.3 ± 0.5
Maximal Activity, MA [6]: 180 ± 145 pM per 10^6 cells
Maximal Inhibition, MI [6]: 1.2 ± 0.2 pM per 10^6 cells
Initial Activity, IA (HeLa, 61 ng/mL pSG5-cDNAwtC99, eqn. 1, activity at zero DAPT): 91 ± 6 pM per 10^6 cells
EC50 [6]: 107 ± 36 nM
IC50 [6]: 489 ± 62 nM
Activation Hill coef. [7]: 0.92 ± 0.3
Inhibition Hill's coef [7]: 1.7 ± 0.6
Maximal Activity, MA [7]: 170 ± 95 pM per 10^6 cells
